Data taken from patent US20170000784A1, “Autophagy Inhibitors” (priority 2013, published 2017).
Like-named read-outs stand apart in the source and are kept apart here.

Key:
Type in all cases: cell-based
[1] = test system: UACC-502 melanoma cell line; experiment: Cell viability (IC50) screen, CellTiter Glo, UACC-502; conditions: Homo sapiens
Method: U2OS cells were seeded at 500 cells per well in 5A McCoy's with 10% FBS in 96-well clear bottom, black-walled tissue culture plates. All melanoma cell lines (A375, UACC-91, UACC-257, UACC-502, UACC-903, UACC-1308, UACC-1940, UACC-2534, and UACC-3291) were seeded at 5,000 cells per well in RPMI 1640 with 10% FBS in 96-well clear bottom, black-walled tissue culture plates. After 24 hour incubation, cells were treated with VATG compounds in triplicate with a 10-point half log dose response from […] for 24 and 48 hours. Medium was removed and 2× CellTiter Glo (Promega, G7571) reagent mixed 1:1 with Opti-MEM (Invitrogen, 31985062) was added at 100 μL per well and incubated at room temperature for 15 minutes while rocking. 75 μL per well was moved to a white-walled 96-well plate and luminescence quantified using the 96 LUM program on an EnVision plate reader (PerkinElmer) and exported for analysis. All triplicate data points were averaged and luminescent readings for each treatment were normalized to vehicle control for change in viability. Dose response curves were input into SigmaPlot for IC50 calculations (Systat Software Inc).

[2] = test system: lysosomal protease cathepsin B in U2OS cells; experiment: Immunoblot of active cathepsin B; conditions: 3 μM and 30 μM for 6 hours; effects stated at 30 μM (CQ: at either dose)
Method: For Western blotting, U2OS cells were seeded in 10 cm plates in 5A McCoy's with 10% FBS at 1×10^6 cells per plate. All melanoma lines were seeded in 10 cm plates in RPMI 1640 with 10% FBS at 1×10^6 cells per plate. After 24 hours, cells were treated with CQ, QN, Example 27, or Example 7 in a dose response of 0.3 μM, 1 μM, 3 μM, 10 μM, and 30 μM for three hours. A375 were treated with PLX-4032 (Selleck Chemicals, S1267) at 10 nM, 100 nM, and 1 μM for three hours with and without CQ, QN, Example 7, and Example 27 at 3 μM and 30 μM. After treatment, cells were lysed [10 mM KPO4, 1 mM EDTA, 10 mM MgCl2, 5 mM EGTA, 50 mM bis-glycerophosphate, 0.5% NP40, 0.1% Brij35, 0.1% sodium deoxycholate, 1 mM NaVO4, 5 mM NaF, 2 mM DTT, and complete protease inhibitors (Sigma, P8340-5 mL)] and 50 μg of protein was resolved by SDS-PAGE. Proteins were transferred to PVDF membranes and probed with primary antibodies [LC3 (Sigma, L7543-200UL), anti-α-tubulin (Sigma, T6199), cathepsin B (Santa Cruz, sc-13985)] for 16 hours at 4° C. followed by a secondary antibody [HRP-linked rabbit or mouse IgG (GE Healthcare, NA934 or NA931) or Odyssey IRDye 680CW Goat anti-rabbit IgG (LI-COR, 926-32221) or IRDye 800CW Goat anti-mouse IgG (LI-COR, 926-32210)] for 1 hour at room temperature. Proteins were detected with enhanced chemiluminescence or using the Odyssey machine and quantified (FIGS. 12, 15, 16, 7 and 11).
Deacidification of lysosomes would be expected to not only prevent the maturation and turnover of the lysosomes from early to late, but also affect the functionality of lysosomal enzymes and consequently the turnover of lysosomal constituents. To determine if lysosomal activity was inhibited, lysosomal protease cathepsin B activity was measured by immunoblotting (FIG. 12C). Lysates were harvested from cells and treated with CQ, QN, Example 7, and Example 27 at both 3 μM and 30 μM for 6 hours.

[3] = test system: U2OS cells stably expressing tfLC3; conditions: for autophagy inhibition at 3 μM: FIG. 10B
Method: U2OS cells stably expressing tfLC3 were seeded at 50,000 cells per well in 5A McCoy's with 10% FBS on number 1.5 coverglass in 24-well tissue culture dishes. After 24 hours, cells were treated with known autophagy controls rapamycin [100 nM] (Millipore, 553210-10 mg), bafilomycin A1 [100 nM] (AG Scientific, B-1183), AZD-8055 [100 nM](Selleck Chemicals, S1555), and CQ [50 μM] as well as autophagy inhibitors (CQ, QN, Example 7, and Example 27) at doses of 0.1 μM, 0.25 μM, 0.5 μM, 1 μM, 5 μM, 15 μM, 25 μM, and 50 μM for three hours. Cells were washed with 1×PBS, fixed with 3.7% formaldehyde, and nuclei were stained with Hoechst 33342 (2 μg/mL). Coverglass was inverted onto microscope slides using mounting gel. Cells were imaged using a 60× oil-immersion objective on a Nikon Eclipse Ti fluorescent microscope and 10 images at each dose were taken for quantification. Image processing and quantification were completed with the Nikon NIS Elements software. To quantify, images were deconvolved using a 2D blind deconvolution function with one iteration and settings of normal cell thickness and normal noise level. Regions of interest (ROI) were drawn around the edges of each cell. Intensity thresholds were set to include all pixels equal to or greater than the intensity above the mean background fluorescence using the separation feature and restrictions set for puncta size (FIG. 9). Objects within the threshold for each ROI were quantified using an automated object count function and exported for analysis. Although other parameters were also collected, the mean intensity of the objects was averaged between the 10 images of each dose, or approximately 50 cells (FIGS. 9B and 9C). Representative images were chosen for each dose and the lookup table (LUT) brightness' were set based on the mean intensity of the DMSO control (FIGS. 8A and 10A). The mean intensity of each image was divided by the mean intensity of the DMSO control to control for brightness and the LUTs were adjusted by the percent difference to avoid background and for consistent visualization. All other settings (gain, exposure time, and lamp strength) were kept the same across all conditions. […] Mean intensity was further chosen for quantification as it accurately represents both the increase in puncta number and area when the accumulation of autophagosomes partially fuse (FIG. 9C, 9D). Quantification of the red channel (RFP-LC3 puncta) was performed to determine the total autophagic vesicle population (both autophagosomes and autolysosomes).
Autophagy inhibition can be measured by fluorescent microscopy using cells expressing a tandem fluorescent (RFP-GFP) labeled LC3 sensor (tfLC3). Upon autophagosome nucleation, LC3 is localized to the autophagic membrane and the overlapping GFP and RFP fluorescence appears as yellow puncta. After the autophagosome matures, it fuses with the lysosome, forming an autolysosome. The GFP in this LC3 sensor is pH labile and becomes quenched by the acidic environment of the autolysosome. However, the RFP remains stable; therefore, autolysosomes are indicated by red puncta. Accordingly, when autophagy is inhibited at the final stage (completion), the abundance of yellow puncta is expected to increase proportionally to the level of autophagy inhibition.
Cells were then fixed and imaged by fluorescent microscopy.

[4] = UACC-502 cell viability, CellTiter Glo, read-out: IC50

| SMILES | IC50 [1, 4] | active cathepsin B [2] | Potency (EC/ECCQ) [3] | fold more potent at autophagy inhibition than QN [3] | autophagy inhibition at 3 μM [3] | IC50 [1] | Potency (EC/ECCQ) ([3]; relative potency score versus chloroquine, greater than one = more potent than CQ) | concentration giving a significant increase in mean intensity of autophagic puncta ([3]; U2OS-tfLC3, ten-point dose response, FIG. 8B) | Effective Concentration (EC) ([3]; concentration with statistically significant increase in puncta number over vehicle control, three hours) |
| --- | --- | --- | --- | --- | --- | --- | --- | --- | --- |
| COc1ccc2nc3cc(Cl)ccc3c(NCCCCN3CCN(C)CC3)c2c1 [Example 7, 6-Chloro-2-methoxy-N-(4-(4-methylpiperazin-1-yl)butyl)acridin-9-amine] | 1800 nM | nearly complete loss | 150 | 2 | inhibit autophagy | – | – | – | – |
| CN1CCN(CCNc2c3c(nc4cc(Cl)ccc24)CCCC3)CC1 [Example 27, 6-Chloro-N-(2-(4-methylpiperazin-1-yl)ethyl)-1,2,3,4-tetrahydroacridin-9-amine] | – | significant decrease | – | – | inhibit autophagy | 42300 nM | 3 | – | – |
| CCN(CC)CCCC(C)Nc1c2ccc(Cl)cc2nc2ccc(OC)cc12 (stereo not drawn) [Quinacrine, quinacrine, reference compound] | 2200 nM | nearly complete loss | ~60 | – | inhibit autophagy | – | – | 0.25 µM | 0.25 µM |
